Source: patent US8193252B1, “Mesoprogestins (progesterone receptor modulators) for the treatment and prevention of benign hormone dependent gynecological disorders” (Bayer Pharma AG, priority 1999, dated 2012)

Key:
[1] = biological target: T1, PR (progesterone receptor) (Homo sapiens, UniProt P06401); assay: Relative binding activity (RBA) at PR, progesterone = 100%; details: by Kaufmann
T1 sequence (P06401 1-933): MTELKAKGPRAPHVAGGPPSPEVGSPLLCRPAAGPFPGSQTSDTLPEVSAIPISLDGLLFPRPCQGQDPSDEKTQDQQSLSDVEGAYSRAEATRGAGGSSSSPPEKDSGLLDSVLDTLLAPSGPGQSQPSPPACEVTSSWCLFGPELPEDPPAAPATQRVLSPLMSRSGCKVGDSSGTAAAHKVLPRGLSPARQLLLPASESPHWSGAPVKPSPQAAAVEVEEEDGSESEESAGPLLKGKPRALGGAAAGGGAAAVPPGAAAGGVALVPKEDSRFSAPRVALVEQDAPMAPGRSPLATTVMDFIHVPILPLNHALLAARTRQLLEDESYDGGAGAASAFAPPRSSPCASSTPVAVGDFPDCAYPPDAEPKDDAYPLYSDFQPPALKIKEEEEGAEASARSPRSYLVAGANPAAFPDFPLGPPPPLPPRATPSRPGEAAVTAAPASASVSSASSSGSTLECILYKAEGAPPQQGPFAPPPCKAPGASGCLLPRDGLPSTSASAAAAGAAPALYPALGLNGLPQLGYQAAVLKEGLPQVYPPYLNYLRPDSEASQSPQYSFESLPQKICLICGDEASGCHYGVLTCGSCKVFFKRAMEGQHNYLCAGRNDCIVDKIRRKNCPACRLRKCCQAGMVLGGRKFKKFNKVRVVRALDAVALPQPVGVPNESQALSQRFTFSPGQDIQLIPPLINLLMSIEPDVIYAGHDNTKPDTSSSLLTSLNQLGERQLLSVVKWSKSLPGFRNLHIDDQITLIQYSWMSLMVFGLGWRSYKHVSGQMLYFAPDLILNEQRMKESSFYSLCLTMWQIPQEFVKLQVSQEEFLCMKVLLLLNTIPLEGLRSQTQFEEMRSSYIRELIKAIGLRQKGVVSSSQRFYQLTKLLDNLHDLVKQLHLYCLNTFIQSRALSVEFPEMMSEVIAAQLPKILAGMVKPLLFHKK

GR = biological target: T2, GR (Homo sapiens, UniProt P04150); assay: Relative binding activity (RBA) at GR, dexamethasone = 100%; details: by Kaufmann
T2 sequence (P04150 1-777): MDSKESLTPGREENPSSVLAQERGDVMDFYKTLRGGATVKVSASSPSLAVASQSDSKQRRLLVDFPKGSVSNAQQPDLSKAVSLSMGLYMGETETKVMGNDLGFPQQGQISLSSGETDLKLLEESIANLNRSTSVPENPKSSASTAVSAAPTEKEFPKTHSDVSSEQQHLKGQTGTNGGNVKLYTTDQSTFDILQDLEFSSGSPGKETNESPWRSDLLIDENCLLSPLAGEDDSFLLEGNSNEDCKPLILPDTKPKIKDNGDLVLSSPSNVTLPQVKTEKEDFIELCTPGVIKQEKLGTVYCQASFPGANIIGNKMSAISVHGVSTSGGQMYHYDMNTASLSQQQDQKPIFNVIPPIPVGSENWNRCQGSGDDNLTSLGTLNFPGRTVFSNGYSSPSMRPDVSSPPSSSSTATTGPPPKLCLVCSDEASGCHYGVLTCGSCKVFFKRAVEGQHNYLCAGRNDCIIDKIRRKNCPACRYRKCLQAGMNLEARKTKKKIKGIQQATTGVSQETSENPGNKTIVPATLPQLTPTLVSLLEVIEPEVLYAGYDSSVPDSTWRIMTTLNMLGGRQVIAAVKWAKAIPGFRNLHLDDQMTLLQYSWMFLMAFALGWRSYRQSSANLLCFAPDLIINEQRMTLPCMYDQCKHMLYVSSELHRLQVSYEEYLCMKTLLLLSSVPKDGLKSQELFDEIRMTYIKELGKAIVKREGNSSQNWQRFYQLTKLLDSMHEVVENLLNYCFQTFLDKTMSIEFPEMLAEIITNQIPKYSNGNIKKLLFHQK

[2] = biological target: T3, progesterone receptor (PR) (Oryctolagus cuniculus, UniProt P06186); assay: McPhail test, PR agonistic (progestagenic) activity in estradiol-primed juvenile rabbits; type: in vivo, rabbit; details: for maximum progestagenic effect relative to progesterone: dose range 0.003-100 mg/rabbit s.c.
T3 construct: effects of PR-modulators in the uterus of estrogen primed immature rabbits (McPhail test); from tissue; host or cells: uterus (endometrium) of estradiol-primed juvenile rabbits, in vivo
T3 sequence (P06186 1-930): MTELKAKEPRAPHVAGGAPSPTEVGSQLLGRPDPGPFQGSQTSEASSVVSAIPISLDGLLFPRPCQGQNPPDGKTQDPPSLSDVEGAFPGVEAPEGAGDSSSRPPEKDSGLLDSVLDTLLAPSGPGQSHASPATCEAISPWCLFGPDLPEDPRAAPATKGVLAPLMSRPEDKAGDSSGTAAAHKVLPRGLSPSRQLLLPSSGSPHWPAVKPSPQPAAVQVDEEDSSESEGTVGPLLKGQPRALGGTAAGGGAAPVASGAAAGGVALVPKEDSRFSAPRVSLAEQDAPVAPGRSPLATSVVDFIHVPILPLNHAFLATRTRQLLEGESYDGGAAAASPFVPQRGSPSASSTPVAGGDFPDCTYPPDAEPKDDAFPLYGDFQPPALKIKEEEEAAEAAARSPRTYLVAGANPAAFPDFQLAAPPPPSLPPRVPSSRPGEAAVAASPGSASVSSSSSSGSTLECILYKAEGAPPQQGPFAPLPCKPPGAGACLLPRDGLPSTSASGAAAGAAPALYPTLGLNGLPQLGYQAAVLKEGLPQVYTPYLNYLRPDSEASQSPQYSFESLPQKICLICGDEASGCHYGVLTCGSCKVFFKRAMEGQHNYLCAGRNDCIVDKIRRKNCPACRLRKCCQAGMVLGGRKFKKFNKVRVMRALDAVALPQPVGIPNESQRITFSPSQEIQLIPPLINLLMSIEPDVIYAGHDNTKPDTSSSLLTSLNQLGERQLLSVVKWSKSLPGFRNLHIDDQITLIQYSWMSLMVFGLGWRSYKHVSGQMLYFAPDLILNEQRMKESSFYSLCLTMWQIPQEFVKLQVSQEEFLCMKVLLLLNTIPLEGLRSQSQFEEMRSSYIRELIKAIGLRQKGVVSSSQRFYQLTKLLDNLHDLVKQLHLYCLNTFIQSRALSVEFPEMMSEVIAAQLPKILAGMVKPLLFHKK
Protocol: In the classical bioassay, the McPhail test, assessing progestagenic and antiprogestagenic effects in rabbits (Selye H., Textbook of Endocrinology, 1947, pp. 345-346), progesterone produces a maximum McPhail score of 4 (by definition).
The PR antagonistic and agonistic properties of mesoprogestins were assessed in estrogen-primed rabbits in the McPhail test according to Selye (Textbook of Endocrinology, 1947, pp. 345-346).

[3] = 4 days s.c. treatment, absence of progesterone

Structure (SMILES)	RBA (%) PR [1]	RBA (%) GR (GR)	maximum progestagenic effect relative to progesterone [2]	dose of maximum effect [2, 3]	maximum effect, McPhail score [2, 3]	shape of dose response in McPhail test ([2]; absence of progesterone)
COC[C@]1(OC)CC[C@H]2[C@@H]3CCC4=CC(=O)CCC4=C3[C@@H](c3ccc(/C=N/O)cc3)C[C@@]21C [J867, 4-[17β-Methoxy-17α-(methoxymethyl)-3-oxoestra-4,9-dien-11β-yl]benzaldehyd-(1E)-oxim]	302%	78%	Neither mesoprogestin tested (J1042, J867, J956) reached the maximum effect of progesterone	–	–	–
CCNC(=O)O/N=C/c1ccc([C@H]2C[C@@]3(C)[C@@H](CC[C@]3(COC)OC)[C@@H]3CCC4=CC(=O)CCC4=C32)cc1 [J956, 4-[17β-Methoxy-17α-(methoxymethyl)-3-oxoestra-4,9-dien-11β-yl]benzaldehyd-(1E)-[O-(ethylamino)carbonyl]oxim]	345%	154%	Neither mesoprogestin tested (J1042, J867, J956) reached the maximum effect of progesterone	0.3-1 mg/rabbit	1.5 McPhail score	biphasic response
CCSC(=O)O/N=C/c1ccc([C@H]2C[C@@]3(C)[C@@H](CC[C@]3(COC)OC)[C@@H]3CCC4=CC(=O)CCC4=C32)cc1 [J1042, 4-[17β-Methoxy-17α-(methoxymethyl)-3-oxoestra-4,9-dien-11β-yl]benzaldehyd-(1E)-[O-(ethylthio)carbonyl]oxim]	164%	42%	Neither mesoprogestin tested (J1042, J867, J956) reached the maximum effect of progesterone	–	–	–
